Source: publication PMC10672269, “Evaluation of Carbonic Anhydrase, Acetylcholinesterase, Butyrylcholinesterase, and α-Glycosidase Inhibition Effects and Antioxidant Activity of Baicalin Hydrate” (Life, 2023)

Columns and labels:
[1] = Fe3+ reducing ability (potassium ferricyanide reduction); conditions: at 30 μg/mL
Description: According to prior investigation, baicalin hydrate’s ability to reduce Fe^3+ was achieved. Also, according to previous works, the Fe^3+-reducing effect of baicalin hydrate was tested. Briefly, 0.75 mL of deionized water and different doses of baicalin hydrate (10–30 μg/mL) were combined with 1.25 mL sodium phosphate buffer (pH 6.6, 0.2 M) and 1.25 mL of K3[Fe(CN)6] (1%). After 30 min incubation at 30 °C, the reaction medium was acidified with 1 mL trichloroacetic acid (10%, TCA) and re-incubated in the dark for 30 min. Finally, 0.5 mL of FeCl3 (0.1%) was transferred to the solution. The absorbance values of baicalin hydrate and references were recorded at 700 nm. The increased absorbance of the reaction mixture reflects an increasing reduction ability.

[2] = Cu2+ reducing ability (cupric ions reducing); conditions: at 30 μg/mL
Description: The technique of Apak et al. was utilized to assess the cupric ions (Cu^2+) reducing capacity of baicalin hydrate. After carrying out the required experimental procedures, the absorbances were detected at 450 nm using a spectrophotometer (Shimadzu, UV-1280, Kyoto, Japan). To do so, 0.2 mL CuCl2 solution (10 mM), 200 µL neocuproine solution (7.5 mM), and 200 µL CH3COONa buffer solution (1.0 M) were added to a test tube. The solution was mixed with different concentrations of baicalin hydrate (10–30 μg/mL). The total volume then reduced to 1.5 mL by adding distilled water and stored at room temperature. After 30 min incubation, the absorbances of the samples were measured at 450 nm. The increased absorbance of the reaction reflects increased reduction capacity.

DPPH radical scavenging = assay: DPPH radical scavenging
Description: The Blois technique was used to test the DPPH^• scavenging capacity of baicalin hydrate. Briefly, 0.25 mL of different concentrations of baicalin hydrate in ethanol (10–30 μg/mL) and 0.25 mL of DPPH radical solution (0.3 mM) in ethanol were combined with 1 mL ethanol in test tubes. The mixture was then incubated at 37 °C for 30 min. The DPPH radical scavenging activities of baicalin hydrate were measured at 517 nm.
(§1) The IC50 values were determined using plots of activity (%) versus baicalin hydrate. Ki values and other inhibition factors were determined using Lineweaver–Burk graphs.

ABTS radical scavenging = assay: ABTS radical scavenging
Description: ABTS^•+ scavenging capacity of baicalin hydrate was measured according to a different work and was detected at 734 nm. ABTS^•+ was produced by the reaction of 2 mM ABTS in water with 2.45 mM potassium persulfate (K2S2O8), incubated in the dark at room temperature for five hours. Before usage, the ABTS^•+ solution was diluted to obtain an absorbance of 0.750 ± 0.025 at 734 nm with phosphate buffer (0.1 M, pH 7.4). Then, 1 mL of ABTS^•+ solution was added to 3 mL of baicalin hydrate in ethanol at different concentrations (10–30 µg/mL).
as §1

DMPD radical scavenging = assay: DMPD radical scavenging
Description: Baicalin hydrate was evaluated for its capacity to remove DMPD^•+ using the Fogliano technique. For this purpose, 0.5 mL of FeCl3 (50 mM) and 1.5 mL of DMPD solution were added to the buffer solution (pH 5.3, 0.1 M). Then, this mixture was added to 1 mL of different concentrations (10–30 μg/mL) of baicalin hydrate. Then, the total volume was adjusted to 4 mL using deionized water. Finally, 1 mL of DMPD radicals were added, and their absorbances were recorded at 505 nm.
as §1

[3] = molecular target: T1, acetylcholinesterase (AChE) (Electrophorus electricus, UniProt O42275); assay: Acetylcholinesterase inhibition (Ellman); format: biochemical, electric eel (Electrophorus electricus)
T1 construct: AChE was obtained from electric eel (Electrophorus electricus); from tissue

[4] = molecular target: T2, butyrylcholinesterase (BChE) (Equus caballus, UniProt P81908); assay: biochemical; parameters: species or system equine
T2 construct: BChE was purified from equine serum; from tissue; host or cells: equine serum

α-glycosidase = assay: α-Glycosidase inhibition (p-NPG substrate); format: biochemical, Saccharomyces cerevisiae
Description: The inhibition effects of baicalin hydrate on α-glycosidase (from Saccharomyces cerevisiae) were assessed according to the procedure outlined by Tao et al.. p-Nitrophenyl-D-glucopyranoside (p-NPG) was used as a substrate for α-glycosidase. Briefly, 75 μL phosphate buffer (pH 7.4) was mixed with 5 μL of the sample and 20 μL α-glycosidase enzyme solution in a phosphate buffer (0.15 U/mL, pH 7.4). After preincubation, 50 μL of p-nitrophenyl-D-glycopyranoside (p-NPG) in a phosphate buffer (5 mM, pH 7.4) was transferred, and the solution was incubated at 37 °C. The absorbance of the samples was measured at 405 nm. The amount of enzyme that catalyzed […] of substrate per minute (pH 7.4) was one α-glycosidase unit.
as §1

hCA II isoenzyme = molecular target: T3, hCA II isoenzyme (Homo sapiens, UniProt P00918); assay: Human carbonic anhydrase II inhibition (esterase activity); format: biochemical
T3 construct: hCA II isoenzyme was purified from fresh human erythrocytes; from tissue
Description: hCA II isoenzyme was purified from fresh human erythrocytes. The erythrocytes were spun at 10,000× g for 30 min. The serum was then separated, and the pH was adjusted to 8.7 using solid Tris. Sepharose-4B-L-Tirozyne sulfanilamide affinity column chromatography was used to purify the CA II isoenzyme. […] Sodium acetate/NaClO4 (0.5 M, pH 5.6, 25 °C) was then used to elute the hCA II isozyme. The Bradford technique was used to measure the protein quantity throughout the purification process. Bovine serum albumin was employed as a reference protein. SDS-PAGE was used to monitor the purity of the hCA II isoform. Esterase activity was performed throughout hCA II’s purification and inhibition processes.
as §1

[5] = DPPH tests in a different investigation; cited from earlier work

T1 sequence (O42275 24-633): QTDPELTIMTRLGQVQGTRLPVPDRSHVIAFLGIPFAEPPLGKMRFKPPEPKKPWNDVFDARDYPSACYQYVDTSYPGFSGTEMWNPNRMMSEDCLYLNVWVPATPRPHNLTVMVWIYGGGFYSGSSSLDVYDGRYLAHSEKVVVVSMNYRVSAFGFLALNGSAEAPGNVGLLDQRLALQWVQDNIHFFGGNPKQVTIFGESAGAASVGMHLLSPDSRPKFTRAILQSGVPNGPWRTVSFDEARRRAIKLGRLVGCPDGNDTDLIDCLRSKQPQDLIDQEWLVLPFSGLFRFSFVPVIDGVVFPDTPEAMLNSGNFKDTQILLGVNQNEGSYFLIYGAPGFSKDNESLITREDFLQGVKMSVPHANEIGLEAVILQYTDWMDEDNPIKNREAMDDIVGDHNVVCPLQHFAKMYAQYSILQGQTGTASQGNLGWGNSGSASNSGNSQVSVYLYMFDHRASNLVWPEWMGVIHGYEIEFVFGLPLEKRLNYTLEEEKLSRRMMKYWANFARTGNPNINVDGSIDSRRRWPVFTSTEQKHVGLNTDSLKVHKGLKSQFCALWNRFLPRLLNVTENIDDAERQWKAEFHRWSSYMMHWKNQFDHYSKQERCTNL
T2 sequence (P81908 whole entry): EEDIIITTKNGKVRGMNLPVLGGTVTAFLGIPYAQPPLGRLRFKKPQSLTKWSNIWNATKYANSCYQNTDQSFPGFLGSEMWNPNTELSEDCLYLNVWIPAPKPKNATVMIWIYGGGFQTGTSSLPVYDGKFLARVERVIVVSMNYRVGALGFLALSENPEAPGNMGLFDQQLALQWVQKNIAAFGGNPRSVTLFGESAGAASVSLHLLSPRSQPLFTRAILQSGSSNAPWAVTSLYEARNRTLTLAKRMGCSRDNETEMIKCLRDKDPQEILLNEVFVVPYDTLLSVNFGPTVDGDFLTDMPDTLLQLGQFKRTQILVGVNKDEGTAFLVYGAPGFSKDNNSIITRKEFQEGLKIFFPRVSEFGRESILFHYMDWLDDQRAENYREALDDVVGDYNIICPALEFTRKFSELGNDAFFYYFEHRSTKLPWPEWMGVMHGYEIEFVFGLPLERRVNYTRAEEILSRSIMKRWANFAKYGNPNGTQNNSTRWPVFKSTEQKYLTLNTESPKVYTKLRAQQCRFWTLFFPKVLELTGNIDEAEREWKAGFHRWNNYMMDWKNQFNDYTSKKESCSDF

O=C(O)[C@H]1O[C@@H](Oc2cc3oc(-c4ccccc4)cc(=O)c3c(O)c2O)[C@H](O)[C@@H](O)[C@@H]1O [Baicalin hydrate, baicalin hydrate]
Fe^3+ reducing, absorbance λ (700 nm) [1]: 1.249
Fe^3+ reducing, absorbance λ (700 nm) ([1]; listed as baicalin hydrate): 1.249 ± 0.014
Cu^2+ reducing, absorbance λ (450 nm) [2]: 0.344
Cu^2+ reducing, absorbance λ (450 nm) ([2]; listed as baicalin hydrate): 0.344 ± 0.033
DPPH• scavenging IC50 (DPPH radical scavenging): 13.40 µg/mL
ABTS•+ scavenging IC50 (ABTS radical scavenging): 38.37 µg/mL
DMPD•+ scavenging IC50 (DMPD radical scavenging): 90.91 µg/mL
IC50 [3]: 14.7 nM
Ki [3]: 10 ± 2.86 nM
Selectivity index (Ki for AChE/Ki BChE) [3]: 2.86
IC50 [4]: 12.3 nM
Ki ([4]; n: 3, Lineweaver–Burk): 3.5 ± 0.68 nM
IC50 (α-glycosidase): 24.6 nM
Ki (α-glycosidase; n: 3, Lineweaver–Burk, read-out: Ki α-Gly): 27 ± 9.91 nM
IC50 (hCA II isoenzyme): 31.1 nM
Ki (hCA II isoenzyme): 19.3 ± 1.79 nM
median inhibitory concentration (IC50) [5]: 17.0 µg/mL
